From ChEMBL document CHEMBL1201861, “Genomics of Drug Sensitity in Cancer screening data, Wellcome Trust Sanger Institute”

Experiments:
Assay in all cases: cells
NB69 = type: functional, cell-based, Homo sapiens; conditions: Homo sapiens, NB69;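 further: growth inhibition of NB69 cells, determined by a cell viability assay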
Description: SANGER: Inhibition of human NB69 cell growth in a cell viability assay.

NCI-H1395 = type: functional, cell-based, Homo sapiens; conditions: Homo sapiens, NCI-H1395;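 further: cell viability assay read-out quantifying reduced proliferation of human NCI-H1395 cells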
Description: SANGER: Inhibition of human NCI-H1395 cell growth in a cell viability assay.

YKG-1 = type: functional, cell-based, Homo sapiens; conditions: Homo sapiens, YKG-1;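 further: cell growth inhibition, read out with a viability assay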
Description: SANGER: Inhibition of human YKG-1 cell growth in a cell viability assay.

SW626 = type: functional, cell-based, Homo sapiens; conditions: Homo sapiens, SW626;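 further: growth inhibition of SW626 cells, measured with a cell viability assay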
Description: SANGER: Inhibition of human SW626 cell growth in a cell viability assay.

BT-20 = type: functional, cell-based, Homo sapiens; conditions: Homo sapiens, BT-20;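 further: cell viability assay measuring suppression of growth in human BT-20 cells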
Description: SANGER: Inhibition of human BT-20 cell growth in a cell viability assay.

NCI-H1563 = type: functional, cell-based, Homo sapiens; conditions: Homo sapiens, NCI-H1563;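 further: growth inhibition of human NCI-H1563 cells, read out with a cell viability assay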
Description: SANGER: Inhibition of human NCI-H1563 cell growth in a cell viability assay.

MG-63 = type: functional, cell-based, Homo sapiens; conditions: Homo sapiens, MG-63;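 further: growth inhibition of human MG-63 cells, read out with a cell viability assay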
Description: SANGER: Inhibition of human MG-63 cell growth in a cell viability assay.

LAMA-84 = type: functional, cell-based; conditions: Homo sapiens;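 further: growth inhibition of LAMA-84 cells, read out with a cell viability assay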
Description: SANGER: Inhibition of human LAMA-84 cell growth in a cell viability assay.

SK-N-FI = type: functional, cell-based, Homo sapiens; conditions: Homo sapiens, SK-N-FI;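 further: cell viability assay measuring growth inhibition of human SK-N-FI cells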
Description: SANGER: Inhibition of human SK-N-FI cell growth in a cell viability assay.

BXPC-3 = type: functional, cell-based, Homo sapiens; conditions: Homo sapiens, BXPC-3;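 further: growth inhibition of human BxPC-3 cells, read out by a cell viability assay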
Description: SANGER: Inhibition of human BxPC-3 cell growth in a cell viability assay.

NCI-H2126 = type: functional, cell-based, Homo sapiens; conditions: Homo sapiens, NCI-H2126;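 further: growth inhibition of the cancer cell line, determined with a cell viability readout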
Description: SANGER: Inhibition of human NCI-H2126 cell growth in a cell viability assay.

SK-MEL-24 = type: functional, cell-based; conditions: Homo sapiens;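 further: growth inhibition read out by a cell viability assay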
Description: SANGER: Inhibition of human SK-MEL-24 cell growth in a cell viability assay.

A101D = type: functional, cell-based, Homo sapiens; conditions: Homo sapiens, A101D;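 further: growth inhibition of the cell line, measured with a viability assay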
Description: SANGER: Inhibition of human A101D cell growth in a cell viability assay.

BHY = type: functional, cell-based, Homo sapiens; conditions: Homo sapiens, BHY;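 further: cell growth inhibition read out by a viability assay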
Description: SANGER: Inhibition of human BHY cell growth in a cell viability assay.

SW684 = type: functional, cell-based, Homo sapiens; conditions: Homo sapiens, SW684;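 further: growth inhibition of human SW684 cells, measured by a cell viability assay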
Description: SANGER: Inhibition of human SW684 cell growth in a cell viability assay.

ETK-1 = type: functional, cell-based, Homo sapiens; conditions: Homo sapiens, ETK-1;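 further: growth inhibition of human ETK-1 cells, read out with a cell viability assay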
Description: SANGER: Inhibition of human ETK-1 cell growth in a cell viability assay.

DMS-114 = type: functional, cell-based, Homo sapiens; conditions: Homo sapiens, DMS-114
KALS-1 = type: functional, cell-based, Homo sapiens; conditions: Homo sapiens, KALS-1;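 further: growth inhibition of KALS-1 cells, determined with a cell viability assay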
Description: SANGER: Inhibition of human KALS-1 cell growth in a cell viability assay.

CTB-1 = type: functional, cell-based; conditions: Homo sapiens
Description: SANGER: Inhibition of human CTB-1 cell growth in a cell viability assay.

Becker = type: functional, cell-based, Homo sapiens; conditions: Homo sapiens, Becker;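 further: growth inhibition of Becker cells, read out with a cell viability assay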
Description: SANGER: Inhibition of human Becker cell growth in a cell viability assay.

NCI-H2122 = type: functional, cell-based, Homo sapiens; conditions: Homo sapiens, NCI-H2122;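 further: growth inhibition of the cells, read out with a cell viability assay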
Description: SANGER: Inhibition of human NCI-H2122 cell growth in a cell viability assay.

GCT = type: functional, cell-based, Homo sapiens; conditions: Homo sapiens, GCT;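 further: GCT cell line proliferation inhibition, read out with a cell viability assay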
Description: SANGER: Inhibition of human GCT cell growth in a cell viability assay.

SW1783 = type: functional, cell-based; conditions: Homo sapiens;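 further: cell growth inhibition measured with a viability assay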
Description: SANGER: Inhibition of human SW1783 cell growth in a cell viability assay.

SK-NEP-1 = type: functional, cell-based; conditions: Homo sapiens;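 further: growth inhibition of human SK-NEP-1 cells, read out by a cell viability assay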
Description: SANGER: Inhibition of human SK-NEP-1 cell growth in a cell viability assay.

KP-4 = type: functional, cell-based, Homo sapiens; conditions: Homo sapiens, KP-4; read-out: IC50;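 further: human KP-4 cells, with growth inhibition read out through a cell viability assay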
Description: SANGER: Inhibition of human KP-4 cell growth in a cell viability assay.

HEC-1 = type: functional, cell-based, Homo sapiens; conditions: Homo sapiens, HEC-1;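 further: growth inhibition of the cell line, read out with a cell viability assay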
Description: SANGER: Inhibition of human HEC-1 cell growth in a cell viability assay.

NB13 = type: functional, cell-based, Homo sapiens; conditions: Homo sapiens, NB13;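 further: cell viability readout measuring growth inhibition of human NB13 cells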
Description: SANGER: Inhibition of human NB13 cell growth in a cell viability assay.

G-401 = type: functional, cell-based, Homo sapiens; conditions: Homo sapiens, G-401
Description: SANGER: Inhibition of human G-401 cell growth in a cell viability assay.

Lu-65 = type: functional, cell-based; conditions: Homo sapiens;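 further: growth inhibition of Lu-65 cancer cells, read out by a cell viability assay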
Description: SANGER: Inhibition of human LU-65 cell growth in a cell viability assay.

SW948 = type: functional, cell-based, Homo sapiens; conditions: Homo sapiens, SW948;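 further: growth inhibition of SW948 cells, read out with a cell viability assay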
Description: SANGER: Inhibition of human SW948 cell growth in a cell viability assay.

Ca-Ski = type: functional, cell-based; conditions: Homo sapiens;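 further: cell viability assay measuring inhibition of Ca-Ski cell growth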
Description: SANGER: Inhibition of human Ca-Ski cell growth in a cell viability assay.

CTV-1 = type: functional, cell-based; conditions: Homo sapiens;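 further: growth inhibition of the cell line, read out with a cell viability assay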
Description: SANGER: Inhibition of human CTV-1 cell growth in a cell viability assay.

SW 962 = type: functional, cell-based, Homo sapiens; conditions: Homo sapiens, SW 962;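 further: growth inhibition of human SW962 cells, read out by a cell viability assay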
Description: SANGER: Inhibition of human SW962 cell growth in a cell viability assay.

HCC1806 = type: functional, cell-based, Homo sapiens; conditions: Homo sapiens, HCC1806;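 further: growth inhibition of the cancer cell line, determined with a cell viability assay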
Description: SANGER: Inhibition of human HCC1806 cell growth in a cell viability assay.

5637 = type: functional, cell-based, Homo sapiens; conditions: Homo sapiens
Description: SANGER: Inhibition of human 5637 cell growth in a cell viability assay.

LB2241-RCC = type: functional, cell-based, Homo sapiens; conditions: Homo sapiens, LB2241-RCC;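 further: cell viability assay measuring how strongly the cultured human renal carcinoma line is prevented from growing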
Description: SANGER: Inhibition of human LB2241-RCC cell growth in a cell viability assay.

ALL-PO = type: functional, cell-based; conditions: Homo sapiens;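 further: growth inhibition of ALL-PO cells, read out by a cell viability assay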
Description: SANGER: Inhibition of human ALL-PO cell growth in a cell viability assay.

SK-MEL-28 = type: functional, cell-based; conditions: Homo sapiens;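 further: growth inhibition of human SK-MEL-28 cells, read out with a cell viability assay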
Description: SANGER: Inhibition of human SK-MEL-28 cell growth in a cell viability assay.

OS-RC-2 = type: functional, cell-based, Homo sapiens; conditions: Homo sapiens, OS-RC-2;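 further: growth inhibition of human OS-RC-2 cells, measured by a cell viability assay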
Description: SANGER: Inhibition of human OS-RC-2 cell growth in a cell viability assay.

KYSE-520 cell line = type: functional, cell-based, Homo sapiens; conditions: Homo sapiens, KYSE-520;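 further: growth inhibition of human KYSE-520 cells, read out with a viability assay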
Description: SANGER: Inhibition of human KYSE-520 cell growth in a cell viability assay.

NB12 = type: functional, cell-based, Homo sapiens; conditions: Homo sapiens, NB12;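 further: growth inhibition of human NB12 cells, read out by a cell viability assay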
Description: SANGER: Inhibition of human NB12 cell growth in a cell viability assay.

NCI-H2087 = type: functional, cell-based, Homo sapiens; conditions: Homo sapiens, NCI-H2087;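 further: growth inhibition determined with a cell viability readout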
Description: SANGER: Inhibition of human NCI-H2087 cell growth in a cell viability assay.

IA-LM = type: functional, cell-based, Homo sapiens; conditions: Homo sapiens, IA-LM;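 further: cell viability assay measuring growth inhibition of human IA-LM cells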
Description: SANGER: Inhibition of human IA-LM cell growth in a cell viability assay.

UACC-893 = type: functional, cell-based, Homo sapiens; conditions: Homo sapiens, UACC-893
Description: SANGER: Inhibition of human UACC-893 cell growth in a cell viability assay.

NCI-H1838 = type: functional, cell-based, Homo sapiens; conditions: Homo sapiens, NCI-H1838;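 further: growth inhibition of NCI-H1838 cells, determined with a cell viability readout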
Description: SANGER: Inhibition of human NCI-H1838 cell growth in a cell viability assay.

HT = type: functional, cell-based; conditions: Homo sapiens
Description: SANGER: Inhibition of human HT cell growth in a cell viability assay.

HT1197 = type: functional, cell-based, Homo sapiens, HT-1197; conditions: Homo sapiens, HT1197
Description: SANGER: Inhibition of human HT-1197 cell growth in a cell viability assay.

SAS = type: functional, cell-based, Homo sapiens; conditions: Homo sapiens, SAS;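 further: growth inhibition of SAS cells, read out with a cell viability assay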
Description: SANGER: Inhibition of human SAS cell growth in a cell viability assay.

NEC8 = type: functional, cell-based, Homo sapiens; conditions: Homo sapiens, NEC8;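 further: growth inhibition of human NEC8 cells, read out by a cell viability assay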
Description: SANGER: Inhibition of human NEC8 cell growth in a cell viability assay.

MCF7 = type: functional, cell-based, Homo sapiens; conditions: Homo sapiens, MCF7;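 further: growth inhibition of human MCF7 cells, read out with a cell viability assay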
Description: SANGER: Inhibition of human MCF7 cell growth in a cell viability assay.

D-263MG = type: functional, cell-based, Homo sapiens; conditions: Homo sapiens, D-263MG
Description: SANGER: Inhibition of human D-263MG cell growth in a cell viability assay.

LB373-MEL-D = type: functional, cell-based, Homo sapiens; conditions: Homo sapiens, LB373-MEL-D;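 further: growth inhibition of the cell line, read out in a cell viability assay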
Description: SANGER: Inhibition of human LB373-MEL-D cell growth in a cell viability assay.

COc1ccc(C2=N[C@@H](c3ccc(Cl)cc3)[C@@H](c3ccc(Cl)cc3)N2C(=O)N2CCNC(=O)C2)c(OC(C)C)c1 [NUTLIN-3]
IC50 (NB69): 2.65 µM | IC50 (NCI-H1395): > 8 µM | IC50 (YKG-1): > 8 µM | IC50 (SW626): > 8 µM | IC50 (BT-20): > 8 µM | IC50 (NCI-H1563): > 8 µM | IC50 (MG-63): > 8 µM | IC50 (LAMA-84): > 8 µM | IC50 (SK-N-FI): > 8 µM | IC50 (BXPC-3): > 8 µM | IC50 (NCI-H2126): > 8 µM | IC50 (SK-MEL-24): > 8 µM | IC50 (A101D): 2.35 µM | IC50 (BHY): > 8 µM | IC50 (SW684): > 8 µM | IC50 (ETK-1): > 8 µM | IC50 (DMS-114): > 8 µM | IC50 (KALS-1): > 8 µM | IC50 (CTB-1): 2.02 µM | IC50 (Becker): > 8 µM | IC50 (NCI-H2122): 6.59 µM | IC50 (GCT): > 8 µM | IC50 (SW1783): > 8 µM | IC50 (SK-NEP-1): > 8 µM | IC50 (KP-4): > 8 µM | IC50 (HEC-1): > 8 µM | IC50 (NB13): > 8 µM | IC50 (G-401): 3.36 µM | IC50 (Lu-65): > 8 µM | IC50 (SW948): > 8 µM | IC50 (Ca-Ski): > 8 µM | IC50 (CTV-1): 4.08 µM | IC50 (SW 962): > 8 µM | IC50 (HCC1806): > 8 µM | IC50 5637: > 8 µM | IC50 (LB2241-RCC): 3.66 µM | IC50 (ALL-PO): > 8 µM | IC50 (SK-MEL-28): > 8 µM | IC50 (OS-RC-2): 5.74 µM | IC50 (KYSE-520 cell line): > 8 µM | IC50 (NB12): > 8 µM | IC50 (NCI-H2087): > 8 µM | IC50 (IA-LM): > 8 µM | IC50 (UACC-893): > 8 µM | IC50 (NCI-H1838): > 8 µM | IC50 (HT): > 8 µM | IC50 (HT1197): > 8 µM | IC50 (SAS): > 8 µM | IC50 (NEC8): 1.22 µM | IC50 (MCF7): 5.44 µM | IC50 (D-263MG): > 8 µM

O=C(c1cc(Cc2n[nH]c(=O)c3ccccc23)ccc1F)N1CCN(C(=O)C2CC2)CC1 [OLAPARIB]
IC50 (NB69): > 5 µM | IC50 (NCI-H1395): > 5 µM | IC50 (YKG-1): > 5 µM | IC50 (SW626): > 5 µM | IC50 (BT-20): > 5 µM | IC50 (NCI-H1563): > 5 µM | IC50 (MG-63): > 5 µM | IC50 (LAMA-84): > 5 µM | IC50 (SK-N-FI): > 5 µM | IC50 (BXPC-3): > 5 µM | IC50 (NCI-H2126): > 5 µM | IC50 (SK-MEL-24): > 5 µM | IC50 (A101D): > 5 µM | IC50 (BHY): > 5 µM | IC50 (SW684): > 5 µM | IC50 (ETK-1): > 5 µM | IC50 (DMS-114): > 5 µM | IC50 (KALS-1): > 5 µM | IC50 (CTB-1): > 5 µM | IC50 (Becker): > 5 µM | IC50 (NCI-H2122): > 5 µM | IC50 (GCT): > 5 µM | IC50 (SW1783): > 5 µM | IC50 (SK-NEP-1): > 5 µM | IC50 (KP-4): > 5 µM | IC50 (HEC-1): > 5 µM | IC50 (NB13): > 5 µM | IC50 (G-401): > 5 µM | IC50 (Lu-65): > 5 µM | IC50 (SW948): > 5 µM | IC50 (Ca-Ski): > 5 µM | IC50 (CTV-1): > 5 µM | IC50 (SW 962): > 5 µM | IC50 (HCC1806): > 5 µM | IC50 5637: > 5 µM | IC50 (LB2241-RCC): > 5 µM | IC50 (ALL-PO): > 5 µM | IC50 (SK-MEL-28): > 5 µM | IC50 (OS-RC-2): > 5 µM | IC50 (KYSE-520 cell line): > 5 µM | IC50 (NB12): > 5 µM | IC50 (NCI-H2087): > 5 µM | IC50 (IA-LM): > 5 µM | IC50 (UACC-893): > 5 µM | IC50 (NCI-H1838): > 5 µM | IC50 (HT): > 5 µM | IC50 (HT1197): > 5 µM | IC50 (SAS): > 5 µM | IC50 (NEC8): > 5 µM | IC50 (MCF7): > 5 µM | IC50 (D-263MG): > 5 µM

Cn1cc(C2=C(c3ccc(Cl)cc3Cl)C(=O)NC2=O)c2ccccc21 [SB-216763]
IC50 (NB69): > 10 µM | IC50 (NCI-H1395): > 10 µM | IC50 (YKG-1): > 10 µM | IC50 (SW626): > 10 µM | IC50 (BT-20): > 10 µM | IC50 (NCI-H1563): > 10 µM | IC50 (MG-63): > 10 µM | IC50 (LAMA-84): > 10 µM | IC50 (SK-N-FI): > 10 µM | IC50 (BXPC-3): > 10 µM | IC50 (NCI-H2126): > 10 µM | IC50 (SK-MEL-24): > 10 µM | IC50 (A101D): > 10 µM | IC50 (BHY): > 10 µM | IC50 (SW684): > 10 µM | IC50 (ETK-1): > 10 µM | IC50 (DMS-114): > 10 µM | IC50 (KALS-1): > 10 µM | IC50 (CTB-1): > 10 µM | IC50 (Becker): > 10 µM | IC50 (NCI-H2122): > 10 µM | IC50 (GCT): > 10 µM | IC50 (SW1783): > 10 µM | IC50 (SK-NEP-1): > 10 µM | IC50 (KP-4): > 10 µM | IC50 (HEC-1): > 10 µM | IC50 (NB13): > 10 µM | IC50 (G-401): > 10 µM | IC50 (Lu-65): > 10 µM | IC50 (SW948): > 10 µM | IC50 (Ca-Ski): > 10 µM | IC50 (CTV-1): > 10 µM | IC50 (SW 962): > 10 µM | IC50 (HCC1806): > 10 µM | IC50 5637: > 10 µM | IC50 (LB2241-RCC): 6.43 µM | IC50 (ALL-PO): > 10 µM | IC50 (SK-MEL-28): > 10 µM | IC50 (LB373-MEL-D): > 10 µM | IC50 (OS-RC-2): > 10 µM | IC50 (KYSE-520 cell line): > 10 µM | IC50 (NB12): > 10 µM | IC50 (NCI-H2087): > 10 µM | IC50 (IA-LM): > 10 µM | IC50 (UACC-893): > 10 µM | IC50 (NCI-H1838): > 10 µM | IC50 (HT): > 10 µM | IC50 (HT1197): > 10 µM | IC50 (SAS): > 10 µM | IC50 (MCF7): > 10 µM | IC50 (D-263MG): > 10 µM
